Reference: patent US20080255106A1, “Novel 2-Phenyl-Imidazo[4,5-B]Pyridine Derivatives as Inhibitors of Glycogen Synthase Kinase for the Treatment of Dementia and Neurodegenerative Disorders” (AstraZeneca AB, priority 2005, published 2008)
Counter-ions that a name gives are not always drawn.

The molecules below were run against T1, GSK3β (Homo sapiens, UniProt P49841) (assay: GSK3β Scintillation Proximity Assay (ATP competition)). Conditions: recombinant human GSK3β, SPA, 1 μM ATP, Km of ATP 20 μM used to calculate Ki.
T1 construct: purchased Dundee University, UK
T1 sequence (P49841 whole entry): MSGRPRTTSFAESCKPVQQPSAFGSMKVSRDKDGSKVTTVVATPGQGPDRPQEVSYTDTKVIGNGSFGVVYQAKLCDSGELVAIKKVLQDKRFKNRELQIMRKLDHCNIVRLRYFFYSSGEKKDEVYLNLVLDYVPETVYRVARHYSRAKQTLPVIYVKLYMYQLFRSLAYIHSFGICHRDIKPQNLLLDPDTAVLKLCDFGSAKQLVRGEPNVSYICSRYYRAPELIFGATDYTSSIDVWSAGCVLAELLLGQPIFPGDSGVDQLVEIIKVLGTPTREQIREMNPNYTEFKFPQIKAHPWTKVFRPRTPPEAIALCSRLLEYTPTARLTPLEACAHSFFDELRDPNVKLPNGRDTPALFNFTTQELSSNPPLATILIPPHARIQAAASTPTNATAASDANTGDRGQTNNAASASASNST
Assay type: biochemical
Experimental: Determination of ATP Competition in Scintillation Proximity GSK3β Assay.
GSK3β Scintillation Proximity Assay.
The competition experiments were carried out in duplicate with 10 different concentrations of the inhibitors in clear-bottom microtiter plates (Wallac, Finland). A biotinylated peptide substrate, Biotin-Ala-Ala-Glu-Glu-Leu-Asp-Ser-Arg-Ala-Gly-Ser(PO3H2)-Pro-Gln-Leu (AstraZeneca, Lund), was added at a final concentration of 1 μM in an assay buffer containing 1 mU recombinant human GSK30 (Dundee University, UK), 12 mM morpholinepropanesulfonic acid (MOPS), pH 7.0, 0.3 mM EDTA, 0.01% β-mercaptoethanol, 0.004% Brij 35 (a […] detergent), 0.5% glycerol and 0.5 μg BSA/25 μl. The reaction was initiated by the addition of 0.04 μCi [γ-^33P]ATP (Amersham, UK) and unlabelled ATP at a final concentration of 1 μM and assay volume of 25 μl. After incubation for 20 minutes at room temperature, each reaction was terminated by the addition of 25 μl stop solution containing 5 mM EDTA, 50 μM ATP, 0.1% Triton X-100 and 0.25 mg streptavidin coated Scintillation Proximity Assay (SPA) beads (Amersham, UK). After 6 hours the radioactivity was determined in a liquid scintillation counter (1450 MicroBeta Trilux, Wallac). The inhibition curves were analysed by non-linear regression using GraphPad Prism, USA. The Km value of ATP for GSK3, used to calculate the inhibition constants (Ki) of the various compounds, was 20 μM.

Ki [nM]	Compound
17	COCCCNC(=O)c1ccnc2[nH]c(-c3ccc(C(F)(F)F)cc3)nc12 [Example 3, N-(3-Methoxypropyl)-2-[4-(trifluoromethyl)phenyl]-3H-imidazo[4,5-b]pyridine-7-carboxamide hydrochloride]
8	COCCCNC(=O)c1ccnc2[nH]c(-c3cccc(COCC(F)(F)C(F)F)c3)nc12 [Example 4, N-(3-Methoxypropyl)-2-{3-[(2,2,3,3-tetrafluoropropoxy)methyl]phenyl}-3H-imidazo[4,5-b]pyridine-7-carboxamide hydrochloride]
51	COCCCNC(=O)c1ccnc2[nH]c(-c3ccc(C(=O)N4CCN(C)CC4)cc3)nc12 [Example 6, N-(3-Methoxypropyl)-2-{4-[(4-methylpiperazin-1-yl)carbonyl]phenyl}-3H-imidazo[4,5-b]pyridine-7-carboxamide hydrochloride]
36	COCCCNC(=O)c1ccnc2[nH]c(-c3ccc(C(=O)N4CCOCC4)cc3)nc12 [Example 7, N-(3-Methoxypropyl)-2-[4-(morpholin-4-ylcarbonyl)phenyl]-3H-imidazo[4,5-b]pyridine-7-carboxamide hydrochloride]
